According to ChEMBL document CHEMBL4828718, “Synthesis and Antifungal Activity Evaluation of Phloeodictine Analogues” (J Nat Prod, 2021):
pIC50: −log10 of the molar value. Converted amounts (≈) assume the structure as drawn. The source made the active and inactive calls. No cut-off for these calls is given here.

Key:
Cryptococcus neoformans [1] = experiment: Antifungal activity against Cryptococcus neoformans ATCC 90113 assessed as fungal growth inhibition incubated for 72 hrs by alamar blue assay; assay type: functional
Pichia kudriavzevii [2] = experiment: Fungicidal activity against Candida krusei ATCC 6258 assessed as fungal growth inhibition incubated for 18 to 24 hrs by alamar blue assay; assay type: functional
Pichia kudriavzevii [3] = experiment: Antifungal activity against Candida krusei ATCC 6258 assessed as fungal growth inhibition incubated for 18 to 24 hrs by alamar blue assay; assay type: functional
Candida albicans [4] = experiment: Antifungal activity against Candida albicans ATCC 90028 assessed as fungal growth inhibition incubated for 18 to 24 hrs by alamar blue assay; assay type: functional
Cryptococcus neoformans [5] = experiment: Fungicidal activity against Cryptococcus neoformans ATCC 90113 assessed as fungal growth inhibition incubated for 72 hrs by alamar blue assay; assay type: functional
Aspergillus fumigatus [6] = experiment: Antifungal activity against Aspergillus fumigatus ATCC 90906 assessed as fungal growth inhibition incubated for 72 hrs by alamar blue assay; assay type: functional
Candida albicans [7] = experiment: Fungicidal activity against Candida albicans ATCC 90028 assessed as fungal growth inhibition incubated for 18 to 24 hrs by alamar blue assay; assay type: functional
Nakaseomyces glabratus [8] = experiment: Antifungal activity against Candida glabrata ATCC 90030 assessed as fungal growth inhibition incubated for 18 to 24 hrs by alamar blue assay; assay type: functional
Nakaseomyces glabratus [9] = experiment: Fungicidal activity against Candida glabrata ATCC 90030 assessed as fungal growth inhibition incubated for 18 to 24 hrs by alamar blue assay; assay type: functional
Vero = experiment: Cytotoxicity against African green monkey Vero cells assessed as reduction in cell viability incubated for 48 hrs by neutral red dye based assay; design: species or system Chlorocebus sabaeus
Aspergillus fumigatus [10] = experiment: Fungicidal activity against Aspergillus fumigatus ATCC 90906 assessed as fungal growth inhibition incubated for 72 hrs by alamar blue assay; assay type: functional
[11] = Cryptococcus neoformans, ATCC 90113, 72 h, read-out: MIC
[12] = Pichia kudriavzevii, ATCC 6258, time 18-24 hrs, read-out: MFC
[13] = Pichia kudriavzevii, ATCC 6258, time 18-24 hrs, read-out: MIC
[14] = Candida albicans, ATCC 90028, time 18-24 hrs, read-out: MIC
[15] = Cryptococcus neoformans, ATCC 90113, 72 h, read-out: MFC
[16] = Aspergillus fumigatus, ATCC 90906, 72 h, read-out: MIC
[17] = Candida albicans, ATCC 90028, time 18-24 hrs, read-out: MFC
[18] = Nakaseomyces glabratus, ATCC 90030, time 18-24 hrs, read-out: MIC
[19] = Nakaseomyces glabratus, ATCC 90030, time 18-24 hrs, read-out: MFC
[20] = Chlorocebus sabaeus, Vero, 48 h
[21] = Aspergillus fumigatus, ATCC 90906, 72 h, read-out: MFC

Row | MIC (Cryptococcus neoformans [1]; [11]) [µM] | MIC (Pichia kudriavzevii [3]; [13]) [µM] | MIC (Candida albicans [4]; [14]) [µM] | MIC (Aspergillus fumigatus [6]; [16]) [µM] | MIC (Nakaseomyces glabratus [8]; [18]) [µM] | Compound | MFC (Pichia kudriavzevii [2]; [12]) [µM] | MFC (Cryptococcus neoformans [5]; [15]) [µM] | MFC (Candida albicans [7]; [17]) [µM] | MFC (Nakaseomyces glabratus [9]; [19]) [µM] | pIC50 (Vero; [20]) | MFC (Aspergillus fumigatus [10]; [21]) [µM] | other results
1 | 12 | 5.1 | 7.4 | 8.8 | 5.1 | CCCCCCCCCCCCCCC1(O)C(C)=C(C)C2=[N+](CC(=O)c3cccs3)CCCN21 (centres undefined) | 5.1 | 12 | 7.4 | 5.1 | 4.57 | 8.8 | –
2 | 0.88 | 1.8 | 3.7 | 3 | 1.8 | CCCCCCCCCCCCCCC1(O)C(C)=C(C)C2=[N+](Cc3ccc(F)cc3F)CCCN21 (centres undefined) | 1.8 | 1.1 | 3.7 | 1.8 | 4.55 | 3.7 | –
3 | 1 | 3.5 | 10 | 6 | 6 | CCCCCCCCCCCCCCC1(O)C(C)=C(C)C2=[N+](CC#N)CCCN21 (centres undefined) | 4.4 | 1 | 10 | 8.7 | < 4.28 | 6 | –
4 | 5.4 | – | – | – | – | CCCCCCCCCCCCCCC1(O)C(C)=C(C)C2=[N+](CC(=O)O)CCCN21 (centres undefined) | – | 5.4 | – | – | < 4.30 | – | MFC (Pichia kudriavzevii [2]; time 18-24 hrs): inactive; MIC (Pichia kudriavzevii [3]; time 18-24 hrs): inactive; MIC (Candida albicans [4]; time 18-24 hrs): inactive; MIC (Aspergillus fumigatus [6]): inactive; MFC (Candida albicans [7]; time 18-24 hrs): inactive; MIC (Nakaseomyces glabratus [8]; time 18-24 hrs): inactive; MFC (Nakaseomyces glabratus [9]; time 18-24 hrs): inactive; MFC (Aspergillus fumigatus [10]): inactive
5 | 1.9 | 5.5 | 9.4 | 9.4 | 6.2 | CCCCCCCCCCCCCCC1(O)C(C)=C(C)C2=[N+](CC(=O)OCC)CCCN21 (centres undefined) | 5.5 | 2.8 | 17 | 11 | 4.36 | 9.4 | –
6 | 3.8 | 7.5 | 12 | 20 | 12 | CCCCCCCCCCCCCCC1(O)C(C)=C(C)C2=[N+](CC(=O)NCCCN)CCCN21 (centres undefined) | 12 | 3.8 | 18 | 15 | < 4.35 | 30 | –
7 | – | – | – | – | – | CCCCCCCCCCCCCCC1(O)C(C)=C(C)C2=[N+](Cc3ccccc3)CCCN21.[Cl-] (centres undefined) | – | – | – | – | – | – | MIC (Cryptococcus neoformans [1]): 2 µM; MFC (Pichia kudriavzevii [2]; time 18-24 hrs): 4.3 µM; MIC (Pichia kudriavzevii [3]; time 18-24 hrs): 4.3 µM; MIC (Candida albicans [4]; time 18-24 hrs): 6.7 µM; MFC (Cryptococcus neoformans [5]): 2 µM; MIC (Aspergillus fumigatus [6]): 5.9 µM; MFC (Candida albicans [7]; time 18-24 hrs): 6.7 µM; MIC (Nakaseomyces glabratus [8]; time 18-24 hrs): 4.3 µM; MFC (Nakaseomyces glabratus [9]; time 18-24 hrs): 4.3 µM; pIC50 (Vero; vero): 4.44; MFC (Aspergillus fumigatus [10]): 5.9 µM
8 | 3.7 | 2.1 | 3.7 | 4.4 | 2.1 | CCCCCCCCCCCCCCC1(O)C(C)=C(C)C2=[N+](Cc3ccc(Cl)cc3)CCCN21 (centres undefined) | 2.1 | 3.7 | 3.7 | 2.1 | 4.38 | 4.4 | –
9 | 1 | 2 | 5.5 | 17 | 2 | CCCCCCCCCCCCCCC1(O)C(C)=C(C)C2=[N+](Cc3ccc(C(F)(F)F)cc3)CCCN21 (centres undefined) | 2 | 3.5 | 7 | 2 | < 4.38 | 19 | –
10 | 2.9 (≈ 1.01 µg/mL) | 12 (≈ 4.18 µg/mL) | 24 (≈ 8.37 µg/mL) | 19 (≈ 6.62 µg/mL) | 11 (≈ 3.83 µg/mL) | CCCCCCCCCCCCCCc1c(C)c(C)cn1CCCN | 12 (≈ 4.18 µg/mL) | 2.9 (≈ 1.01 µg/mL) | 24 (≈ 8.37 µg/mL) | 12 (≈ 4.18 µg/mL) | 4.36 | 19 (≈ 6.62 µg/mL) | –
11 | 3.4 | 2 | 5.4 | 5.4 | 2 | CCCCCCCCCCCCCCC1(O)C(C)=C(C)C2=[N+](Cc3ccc(Br)cc3)CCCN21 (centres undefined) | 2 | 6 | 5.4 | 2 | 4.46 | 8.2 | –
12 | 1.1 | 2.1 | 3 | 3 | 2.1 | CCCCCCCCCCCCCCC1(O)C(C)=C(C)C2=[N+](Cc3cccc(OC)c3)CCCN21 (centres undefined) | 3 | 1.1 | 3 | 2.1 | 4.62 | 3 | –
13 | 0.99 | 2 | 5 | 5 | 4.2 | CCCCCCCCCCCCCCC1(O)C(C)=C(C)C2=[N+](C)CCCN21 (centres undefined) | 2 | 2.4 | 6.5 | 5 | 4.41 | 5 | –
14 | 3.8 | 5 | 14 | 10 | 7.6 | CCCCCCCCCCCCCCC1(O)C(C)=C(C)C2=[N+](CC(=O)NCCCNC(=O)OC(C)(C)C)CCCN21 (centres undefined) | 5 | 3.8 | 14 | 14 | < 4.42 | 15 | –
15 | 1.4 | 1.7 | 4.3 | 5 | 2.1 | CCCCCCCCCCCCCCC1(O)C(C)=C(C)C2=[N+](Cc3ccc([N+](=O)[O-])cc3)CCCN21 (centres undefined) | 1.7 | 1.4 | 4.3 | 2.1 | 4.44 | 5 | –
16 | 6.4 | 13 | 4.3 | 35 | 13 | CCCCCCCCCCCCCCC1(O)c2ccccc2C2=[N+](C)CCCN21 (centres undefined) | 13 | 6.4 | 4.3 | 16 | 4.38 | 35 | –
17 | – | – | – | – | – | CCCCCCCCCCCCCCc1c(C)c(C)cn1CCCNCc1ccccc1 | – | – | – | – | 4.38 | – | MIC (Cryptococcus neoformans [1]): inactive; MFC (Pichia kudriavzevii [2]; time 18-24 hrs): inactive; MIC (Pichia kudriavzevii [3]; time 18-24 hrs): inactive; MIC (Candida albicans [4]; time 18-24 hrs): inactive; MFC (Cryptococcus neoformans [5]): inactive; MIC (Aspergillus fumigatus [6]): inactive; MFC (Candida albicans [7]; time 18-24 hrs): inactive; MIC (Nakaseomyces glabratus [8]; time 18-24 hrs): inactive; MFC (Nakaseomyces glabratus [9]; time 18-24 hrs): inactive; MFC (Aspergillus fumigatus [10]): inactive
18 | 1.8 | 3.8 | 7.5 | 7.5 | 5.2 | CCCCCCCCCCCCCCC1(O)C(C)=C(C)C2=[N+](CC(=O)NCCCC)CCCN21 (centres undefined) | 3.8 | 1.8 | 10 | 5.9 | 4.35 | 7.5 | –
19 | 1.6 | 1.9 | 5.3 | 4 | 4 | CCCCCCCCCCCCCCC1(O)C(C)=C(C)C2=[N+](Cc3cc(OC)c(OC)c(OC)c3)CCCN21 (centres undefined) | 1.9 | 1.6 | 5.3 | 4 | < 4.40 | 4 | –
20 | 3.7 | 6.2 | 18 | – | 4.9 | CCCCCCCCCCCCCCC1(O)C(C)=C(C)C2=[N+](CC(=O)c3cccc(Cl)c3)CCCN21 (centres undefined) | 6.2 | 3.7 | 18 | 4.9 | 5.11 | – | MIC (Aspergillus fumigatus [6]): inactive; MFC (Aspergillus fumigatus [10]): inactive
21 | 2.4 | – | – | – | – | CCCCCCCCCCCCCCC1(O)C(C)=C(C)C2=[N+](C)c3ccccc3CN21 (centres undefined) | – | 2.4 | – | – | < 4.35 | – | MFC (Pichia kudriavzevii [2]; time 18-24 hrs): inactive; MIC (Pichia kudriavzevii [3]; time 18-24 hrs): inactive; MIC (Candida albicans [4]; time 18-24 hrs): inactive; MIC (Aspergillus fumigatus [6]): inactive; MFC (Candida albicans [7]; time 18-24 hrs): inactive; MIC (Nakaseomyces glabratus [8]; time 18-24 hrs): inactive; MFC (Nakaseomyces glabratus [9]; time 18-24 hrs): inactive; MFC (Aspergillus fumigatus [10]): inactive
22 | 3.3 (≈ 1.2 µg/mL) | 6.9 (≈ 2.5 µg/mL) | 12 (≈ 4.35 µg/mL) | 21 (≈ 7.62 µg/mL) | 6.9 (≈ 2.5 µg/mL) | CCCCCCCCCCCCCCc1c(C)c(C)cn1CCCNC | 6.9 (≈ 2.5 µg/mL) | 6.9 (≈ 2.5 µg/mL) | 12 (≈ 4.35 µg/mL) | 6.9 (≈ 2.5 µg/mL) | 4.46 | 23 (≈ 8.34 µg/mL) | –
23 | 3.9 | – | – | – | – | CCCCCCCCCCCCCCC1(O)C(C)=C(C)C2=[N+](Cc3ccc4ccccc4c3)CCCN21 (centres undefined) | – | 12 | – | – | 4.38 | – | MFC (Pichia kudriavzevii [2]; time 18-24 hrs): inactive; MIC (Pichia kudriavzevii [3]; time 18-24 hrs): inactive; MIC (Candida albicans [4]; time 18-24 hrs): inactive; MIC (Aspergillus fumigatus [6]): inactive; MFC (Candida albicans [7]; time 18-24 hrs): inactive; MIC (Nakaseomyces glabratus [8]; time 18-24 hrs): inactive; MFC (Nakaseomyces glabratus [9]; time 18-24 hrs): inactive; MFC (Aspergillus fumigatus [10]): inactive
24 | 3.7 | – | – | – | – | CCCCCCCCCCCCCCC1(O)C(C)=C(C)C2=[N+](CC(=O)NCCOCCOCCOCCNC(=O)CCCC[C@@H]3SC[C@@H]4NC(=O)N[C@@H]43)CCCN21 (some centres undefined) | – | 4.5 | – | – | < 4.55 | – | MFC (Pichia kudriavzevii [2]; time 18-24 hrs): inactive; MIC (Pichia kudriavzevii [3]; time 18-24 hrs): inactive; MIC (Candida albicans [4]; time 18-24 hrs): inactive; MIC (Aspergillus fumigatus [6]): inactive; MFC (Candida albicans [7]; time 18-24 hrs): inactive; MIC (Nakaseomyces glabratus [8]; time 18-24 hrs): inactive; MFC (Nakaseomyces glabratus [9]; time 18-24 hrs): inactive; MFC (Aspergillus fumigatus [10]): inactive
